Measured values published in BindingDB's records for doi:10.1016/s0960-894x(00)00030-5 (Yoshitomi Pharmaceutical Industries, 2000).

Molecular target: D(2) dopamine receptor (Homo sapiens, UniProt P14416)
Experiment: ChEBML_61120
From the text: Binding affinity for Dopamine receptor D2 by displacement of [3H]-spiperone

Chain of D(2) dopamine receptor (P14416 whole entry): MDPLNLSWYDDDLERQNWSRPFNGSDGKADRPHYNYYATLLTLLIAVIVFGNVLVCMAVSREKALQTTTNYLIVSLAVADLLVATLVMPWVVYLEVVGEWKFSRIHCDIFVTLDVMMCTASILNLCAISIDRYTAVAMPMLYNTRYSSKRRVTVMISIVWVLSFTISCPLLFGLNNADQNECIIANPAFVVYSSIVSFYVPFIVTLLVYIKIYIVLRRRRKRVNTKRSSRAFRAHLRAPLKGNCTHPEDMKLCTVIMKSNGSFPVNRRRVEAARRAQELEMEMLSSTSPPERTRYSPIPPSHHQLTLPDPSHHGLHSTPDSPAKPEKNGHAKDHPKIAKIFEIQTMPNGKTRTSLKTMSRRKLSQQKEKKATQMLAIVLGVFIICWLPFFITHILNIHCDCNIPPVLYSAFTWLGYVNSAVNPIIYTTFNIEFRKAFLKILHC

SMILES | Ki [nM]
CN1CCOc2c(C(=O)NC[C@H]3CCCN3CCc3ccccc3)cc(Cl)cc21 [6-Chloro-4-methyl-3,4-dihydro-2H-benzo[1,4]oxazine-8-carboxylic acid ((R)-1-phenethyl-pyrrolidin-2-ylmethyl)-amide] | 57
CN1CCOc2c(C(=O)NC[C@@H]3CCCN3CCc3ccccc3)cc(Cl)cc21 [6-Chloro-4-methyl-3,4-dihydro-2H-benzo[1,4]oxazine-8-carboxylic acid ((S)-1-phenethyl-pyrrolidin-2-ylmethyl)-amide] | 800
